# Patent publication US20260294770A1, “FORMULATIONS OF NARINGENIN” (DEBUT BIOTECHNOLOGY, INC., priority 2023, published 2026)
# Assays:
# [1] = tested on: LCE5A; assay: Upregulation of gene expression and/or activity, 1% naringenin: LCE5A
# Description: (§1) In certain embodiments, administration of a composition comprising naringenin leads to up-regulation of LCE5A, KRT77, ALOXE3, KRT1, HPGD, MUCL1, CASP14, WFDC12, KRT10, DNASE1L2, IL37, SERPINB12, HAL, UPK1A, CALML5, LCE2B, and/or MIR205. In certain embodiments, administration of a composition comprising naringenin leads to down-regulation of CCL11, CSF2, IL23A, IL11, BMP6, IL13RA2, C2CD4A, NR4A2, C2CD4B, FGF2, FARP4, GDF15, THBS1, HSPA1A, PTGS2, and/or DKK1. Tables 10 and 11 provide data for upregulation and downregulation respectively of certain genes after administration of compositions comprising 1% naringenin.
# Late cornified envelope protein 5A (LCE5A) is involved in formation of outer skin protective barrier. LCE5A may also be involved in keratinization. In certain embodiments, upregulation of expression and/or activity of LCE5A results in improved formation of the outer skin protective barrier. Thus, administration of compositions comprising naringenin, which leads to upregulation of LCE5A, results in increased skin barrier strength. In certain embodiments, the administration of composition comprising naringenin results in at least about 20 to about 50-fold upregulation of expression and/or activity of LCE5A. […]
# [2] = tested on: HPGD; assay: Upregulation of gene expression and/or activity, 1% naringenin: HPGD
# Description: as §1
# Hydroxyprostaglandin dehydrogenase (HPGD) has an anti-inflammatory function. In particular, it is involved in degradation of molecules that lead to inflammatory signaling. For example, HPGD is involved in degradation of prostaglandin, which is involved in inflammatory signaling pathway. In certain embodiments, upregulation of expression and/or activity of HPGD leads to an anti-inflammatory effect. In certain embodiments, upregulation of HPGD leads to increase in degradation of signaling molecules that are involved in inflammation. Thus, the upregulation of HPGD leads to reduced inflammation. In certain embodiments, the administration of composition comprising naringenin results in at least about 5 to about 20-fold upregulation of expression and/or activity of HPGD. […]
# [3] = tested on: CASP14; assay: Upregulation of gene expression and/or activity, 1% naringenin: CASP14
# Description: as §1
# Cysteine-aspartic acid protease 14 (CASP14) plays a role in keratinocyte terminal differentiation, which is important for the formation of the skin barrier. In certain embodiments, administration of compositions comprising naringenin leads to upregulation of CASP14. In certain embodiments, this upregulation of CASP14 leads to the improved skin barrier formation. In certain embodiments, the administration of composition comprising naringenin results in at least about 5 to about 20-fold upregulation of expression and/or activity of CASP14. In certain embodiments, the administration of composition comprising naringenin results in at least about ten (10) fold upregulation of expression and/or activity of CASP14.
# [4] = tested on: IL37; assay: Upregulation of gene expression and/or activity, 1% naringenin: IL37
# Description: as §1
# [5] = tested on: SERPINB12; assay: Upregulation of gene expression and/or activity, 1% naringenin: SERPINB12
# Description: as §1
# Serine protease inhibitor (SERPINB12) plays a role in protection of epithelial cells. The intracellular serine protease inhibitors (serpins) are an important family of proteins that protect cells form proteinase-mediated injury. SERPINB12 is broadly expressed and is likely to protect cells, including epithelial cells, from both endogenous and exogenous peptidases. In certain embodiments, compositions comprising naringenin leads to upregulation of SERPINB12, which leads to increase in protection of epithelial cells. In certain embodiments, the administration of composition comprising naringenin results in at least about 5 to about 20-fold upregulation of expression and/or activity of SERPINB12. […]
# [6] = tested on: CSF2; assay: Downregulation of gene expression and/or activity, 1% naringenin: CSF2
# Description: as §1
# Granulocyte-macrophage colony-stimulating factor (CSF2) plays a role in inflammation and arthritis. In certain embodiments of the invention, downregulation of CSF2 leads to an anti-inflammatory activity and/or anti-arthritic activity. In certain embodiments, the administration of composition comprising naringenin results in at least about 10 to about 20-fold downregulation of expression and/or activity of CSF2. In certain embodiments, the administration of composition comprising naringenin results in at least about fifteen (15) fold downregulation of expression and/or activity of CSF2.
# [7] = tested on: NR4A2; assay: Downregulation of gene expression and/or activity, 1% naringenin: NR4A2
# Description: as §1
# Nuclear receptor subfamily 4 group A member 2 (NR4A2) plays a role in the inflammatory response. In certain embodiments, downregulation of NR4A2 results in reduction in inflammation. In certain embodiments, the administration of composition comprising naringenin results in at least about 5 to about 15-fold downregulation of expression and/or activity of NR4A2. In certain embodiments, the administration of composition comprising naringenin results in at least about ten (10) fold downregulation of expression and/or activity of NR4A2.
# [8] = ABTS antioxidant assay (aqueous); format: biochemical; settings: for % Radical Inhibition: aqueous
# Description: The 2,2′-Azinobis [3-ethylbenzothiazoline-6-sulfonic acid]-diammonium salt (ABTS) antioxidant assay is designed to evaluate the antioxidant activity of compositions comprising naringenin in an aqueous medium. ABTS+ solution is generated as a free radical and used to measure relative ability of a compound to scavenge free radicals. Reduction of the absorbance at 734 nm was standardized to solvent control as an indication of ABTS+ scavenging.
# [9] = tested on: superoxide dismutase; settings: consumed orally; cited from earlier work
# [10] = tested on: mouse models; settings: intraperitoneal; cited from earlier work
structure (smiles),measurement,setting,value
"O=C1C[C@@H](c2ccc(O)cc2)Oc2cc(O)cc(O)c21 [naringenin, (2S)-5,7-Dihydroxy-2-(4-hydroxyphenyl)-2,3-dihydro-4H-1-benzopyran-4-one]",Fold-increase in expression and/or activity of LCE5A,[1],~33 fold
same,Fold-increase in expression and/or activity of HPGD,[2],~10 fold
same,Fold-increase in expression and/or activity of CASP14,[3],~11 fold
same,Fold-increase in expression and/or activity of IL37,[4],11 fold
same,Fold-increase in expression and/or activity of SERPINB12,[5],~13 fold
same,fold downregulation in expression and/or activity of CSF2,[6],~18 fold
same,fold downregulation in expression and/or activity of NR4A2,[7],~9 fold
same,Fold-increase (downregulation table) NR4A2,[7]; negative = downregulation,−9 fold
same,% Radical Inhibition,[8]; 0.0045 % w/w naringenin,47.50%
same,% Radical Inhibition,[8]; 0.009 % w/w naringenin,55.45%
same,% Radical Inhibition,[8]; 0.018 % w/w naringenin,65.39%
same,IC50 antioxidant activity (ABTS),"[8]; aqueous solvent system, calculated",0.0058 % w/w
same,Lowest concentration with antioxidant activity,[8]; aqueous systems,≤ 0.001 % w/w
same,Superoxide dismutase,[9],increase
same,Cytokine production,[10],lowers cytokine production
same,Edema,[10],effectively inhibits edema
same,Symptoms associated with atopic dermatitis,[10],lowers symptoms associated with atopic dermatitis
same,UVB-induced skin damage,[10],inhibits UVB-induced skin damage
